Assay results: patent US9271960B2, “Tetrahydrocarbazoles as active agents for inhibiting VEGF production by translational control” (PTC Therapeutics, Inc., priority 2004, dated 2016)
Where a name gives a salt, the structure may show the parent alone. Read-outs that look alike come from different tables or passages of the source. Values belong to the molecule of their own block, whether it stands above or below them.

Tested on: VEGF
Assay: Hypoxia-inducible endogenous VEGF expression ELISA in HeLa cells
Assay type: cell-based
Conditions: VEGF protein by ELISA
Description: The ability of compounds of the invention to modulate hypoxia-inducible endogenous VEGF expression is analyzed as follows. VEGF protein levels are monitored by an ELISA assay (R&D Systems). Briefly, HeLa cells are cultured for 24-48 hours under hypoxic conditions (1% O2, 5% CO2, balanced with nitrogen) in the presence or absence of a compound of the invention. The conditioned media is then assayed by ELISA, and the concentration of VEGF is calculated from the standard ELISA curve of each assay.
A dose-response analysis is performed using the ELISA assay and conditions described above. A series of different concentrations (e.g., seven) are analyzed. In parallel, a dose-response cytotoxicity assay is performed using Cell Titer Glo (Promega) under the same conditions as the ELISA to ensure that the inhibition of VEGF expression is not due to cytotoxicity. Dose-response curves are plotted using percentage inhibition versus concentration of the compound, and EC50 and CC50 values are generated for each compound with the maximal inhibition set as 100% and the minimal inhibition as 0%.
Compounds 156-188 in Table 1 are commercially available. In Table 1, each of the represented compounds is followed by one to five stars.

[1] = Homo sapiens, HeLa, compounds 1-155, hypoxic conditions (1% O2), read-out: ELISA Activity
[2] = Homo sapiens, HeLa, compounds 191-239, hypoxic conditions, read-out: ELISA Activity EC50
[3] = Homo sapiens, HeLa, purchased compounds 156-188, hypoxic conditions, read-out: ELISA Activity
[4] = Homo sapiens, HeLa, purchased compounds 156-188, hypoxic conditions, read-out: ELISA EC50

Structure (SMILES): COc1ccccc1NC1CCCc2c1[nH]c1ccc(Br)cc21 (stereo not drawn) [Compound 45, (6-Bromo-2,3,4,9-tetrahydro-1H-carbazol-1-yl)-(2-methoxy-phenyl)-amine]
EC50 [1]: 40 to 200 nM

Structure (SMILES): Brc1ccc2c3c([nH]c2c1)C(Nc1ccccc1)CCC3 (stereo not drawn) [Compound 47, (7-Bromo-2,3,4,9-tetrahydro-1H-carbazol-1-yl)-phenyl-amine]
EC50 [1]: 40 to 200 nM

Structure (SMILES): OC(COc1ccc(C2CCCCc3c2[nH]c2ccc(Br)cc32)cc1)CN1CCOCC1 (stereo not drawn) [Compound 225]
EC50 [2]: 40 to 200 nM

Structure (SMILES): O=C(NC1CCCc2c1[nH]c1ccc(Br)cc21)c1ccc(C(F)(F)F)cc1 (stereo not drawn) [Compound 131, N-(6-Bromo-2,3,4,9-tetrahydro-1H-carbazol-1-yl)-4-trifluoromethyl-benzamide]
EC50 [1]: 10 to 40 nM

Structure (SMILES): Cc1ccc2[nH]c3c(c2c1)CCCC3NC1CCCCC1 (stereo not drawn) [Compound 161, Cyclohexyl-(6-methyl-2,3,4,9-tetrahydro-1H-carbazol-1-yl)-amine]
EC50 [3]: 200 to 1000 nM
EC50 [4]: 670 nM

Structure (SMILES): Brc1ccc2[nH]c3c(c2c1)CCCC3c1nc2ccccc2o1 (stereo not drawn) [Compound 129, 1-Benzooxazol-2-yl-6-bromo-2,3,4,9-tetrahydro-1H-carbazole]
EC50 [1]: < 10 nM

Structure (SMILES): Brc1ccc2[nH]c3c(c2c1)CCCC3c1ccc(OCC2CO2)cc1 (stereo not drawn) [Compound 194]
EC50 [2]: < 10 nM

Structure (SMILES): OC(COc1ccc(C2CCCc3c2[nH]c2ccc(Br)cc32)cc1)Cn1nccn1 (stereo not drawn) [Compound 227]
EC50 [2]: < 10 nM

Structure (SMILES): Brc1cccc2[nH]c3c(c12)CCCC3Nc1ccccc1 (stereo not drawn) [Compound 43, (5-Bromo-2,3,4,9-tetrahydro-1H-carbazol-1-yl)-phenyl-amine]
EC50 [1]: 40 to 200 nM

Structure (SMILES): COc1ccc(NC2CCCc3c2[nH]c2ccc(C(F)(F)F)cc32)cc1 (stereo not drawn) [Compound 139, (4-Methoxy-phenyl)-(6-trifluoromethyl-2,3,4,9-tetrahydro-1H-carbazol-1-yl)-amine]
EC50 [1]: 10 to 40 nM

Structure (SMILES): NC1CCCc2c1[nH]c1ccc(Cl)cc21 (stereo not drawn) [Compound 96, 6-Chloro-2,3,4,9-tetrahydro-1H-carbazol-1-ylamine]
EC50 [1]: > 1000 nM

Structure (SMILES): FC(F)(F)c1ccc2[nH]c3c(c2c1)CCCC3Nc1ccccc1 (stereo not drawn) [Compound 14, Phenyl-(6-trifluoromethyl-2,3,4,9-tetrahydro-1H-carbazol-1-yl)-amine]
EC50 [1]: < 10 nM

Structure (SMILES): CC(=O)SCCC(=O)N1CCn2c3c(c4cc(C)ccc42)CCCC31 (stereo not drawn) [Compound 182, Thioacetic acid S-[3-(8-methyl-1,2,3a,4,5,6-hexahydro-pyrazino[3,2,1-jk]carbazol-3-yl)-3-oxo-propyl] ester]
EC50 [3]: > 1000 nM
EC50 [4]: > 10000 nM

Structure (SMILES): CC(=O)n1c2c(c3cc(Br)ccc31)CCCC2 [Compound 86, 1-(6-Bromo-1,2,3,4-tetrahydro-carbazol-9-yl)-ethanone]
EC50 [1]: > 1000 nM

Structure (SMILES): FC(F)(F)c1ccc(NC2CCCc3c2[nH]c2ccc(Cl)cc32)cc1 (stereo not drawn) [Compound 137, (6-Chloro-2,3,4,9-tetrahydro-1H-carbazol-1-yl)-(4-trifluoromethyl-phenyl)-amine]
EC50 [1]: < 10 nM

Structure (SMILES): O=C(NC1CCCc2c1[nH]c1ccc(Cl)cc21)c1ccco1 (stereo not drawn) [Compound 144, Furan-2-carboxylic acid (6-chloro-2,3,4,9-tetrahydro-1H-carbazol-1-yl)-amide]
EC50 [1]: 40 to 200 nM

Structure (SMILES): O=C(NC1CCCc2c1[nH]c1ccc(Br)cc21)c1ccc[nH]1 (stereo not drawn) [Compound 126, 1H-Pyrrole-2-carboxylic acid (6-bromo-2,3,4,9-tetrahydro-1H-carbazol-1-yl)-amide]
EC50 [1]: 40 to 200 nM

Structure (SMILES): OC1CCc2c([nH]c3ccc(Br)cc23)C1c1ccc(Cl)cc1 (stereo not drawn) [Compound 238]
EC50 [2]: < 10 nM

Structure (SMILES): COCCN(C)CC(O)COc1ccc(C2CCCc3c2[nH]c2ccc(Br)cc32)cc1 (stereo not drawn) [Compound 200]
EC50 [2]: < 10 nM

Structure (SMILES): Cc1nnsc1C(=O)NC1CCCc2c1[nH]c1ccc(Br)cc21 (stereo not drawn) [Compound 103, 4-Methyl-[1,2,3]thiadiazole-5-carboxylic acid (6-bromo-2,3,4,9-tetrahydro-1H-carbazol-1-yl)-amide]
EC50 [1]: 200 to 1000 nM

Structure (SMILES): Brc1ccc2[nH]c3c(c2c1)CCCC3c1ccccc1 (stereo not drawn) [Compound 15, 6-Bromo-1-phenyl-2,3,4,9-tetrahydro-1H-carbazole]
EC50 [1]: < 10 nM

Structure (SMILES): OCCNC1CCCc2c1[nH]c1ccc(Br)cc21 (stereo not drawn) [Compound 186, 2-(6-Bromo-2,3,4,9-tetrahydro-1H-carbazol-1-ylamino)-ethanol hydrochloride]
EC50 (purchased compounds 156-188, hypoxic conditions, hydrochloride, read-out: ELISA EC50): 12200 nM
EC50 (purchased compounds 156-188, hypoxic conditions, read-out: ELISA Activity): > 1000 nM

Structure (SMILES): CC(=O)N(Cc1ccccc1)C1CCCc2c1[nH]c1ccc(C)cc21 (stereo not drawn) [Compound 174, N-Benzyl-N-(6-methyl-2,3,4,9-tetrahydro-1H-carbazol-1-yl)-acetamide]
EC50 [3]: > 1000 nM
EC50 [4]: > 10000 nM

Structure (SMILES): OC(COc1ccc(C2CCCc3c2[nH]c2ccc(Br)cc32)cc1)Cn1ccnc1 (stereo not drawn) [Compound 195]
EC50 [2]: < 10 nM

Structure (SMILES): O=[N+]([O-])c1ccc2[nH]c3c(c2c1)CCCC3NC1CCC(c2ccccc2)CC1 (stereo not drawn) [Compound 157]
EC50 [3]: 10 to 40 nM
EC50 [4]: 14.9 nM

Structure (SMILES): Brc1ccc2[nH]c3c(c2c1)CCCC3c1ccc(OCCCn2ccnc2)cc1 (stereo not drawn) [Compound 211]
EC50 [2]: < 10 nM

Next, values leading:

EC50 [1]: > 1000 nM
Structure (SMILES): OC1CCCc2c1oc1ccc(Br)cc21 (stereo not drawn) [Compound 108, 8-Bromo-1,2,3,4-tetrahydro-dibenzofuran-4-ol]

EC50 [2]: 40 to 200 nM
Structure (SMILES): OC1CCc2c([nH]c3ccc(Br)cc23)C1c1ccccc1 (stereo not drawn) [Compound 236]

EC50 [2]: 10 to 40 nM
Structure (SMILES): CC(=O)N1CCN(CCCOc2ccc(C3CCCc4c3[nH]c3ccc(Br)cc43)cc2)CC1 (stereo not drawn) [Compound 204]

EC50 [1]: 40 to 200 nM
Structure (SMILES): O=C(NC1CCCc2c1[nH]c1ccc(Br)cc21)c1ccc(Oc2ccccc2)cc1 (stereo not drawn) [Compound 35, N-(6-Bromo-2,3,4,9-tetrahydro-1H-carbazol-1-yl)-4-phenoxy-benzamide]

EC50 [1]: 40 to 200 nM
Structure (SMILES): Brc1ccc2[nH]c3c(c2c1)CCCC3Nc1ccc(N2CCOCC2)cc1 (stereo not drawn) [Compound 40, (6-Bromo-2,3,4,9-tetrahydro-1H-carbazol-1-yl)-(4-morpholin-4-yl-phenyl)-amine]

EC50 [2]: 10 to 40 nM
Structure (SMILES): OC(COc1ccc(C2CCCc3c2[nH]c2ccc(Cl)cc32)cc1)CN1CCSCC1 (stereo not drawn) [Compound 217]

EC50 [2]: 40 to 200 nM
Structure (SMILES): CC(=O)N1CCN(CC(O)COc2ccc(C3CCCc4c3[nH]c3ccc(Cl)cc43)cc2)CC1 (stereo not drawn) [Compound 214]

EC50 [1]: > 1000 nM
Structure (SMILES): c1ccc2c3c([nH]c2c1)C(n1cccc1)CCC3 (stereo not drawn) [Compound 102, 1-Pyrrol-1-yl-2,3,4,9-tetrahydro-1H-carbazole]

EC50 [3]: > 1000 nM
EC50 [4]: > 10000 nM
Structure (SMILES): Cc1ccc2c(c1)c1c3n2CCN(CC(C)O)C3CCC1 (stereo not drawn) [Compound 176, 1-(8-Methyl-1,2,3a,4,5,6-hexahydro-pyrazino[3,2,1-jk]carbazoI-3-yl)-propan-2-ol]

EC50 [1]: 40 to 200 nM
Structure (SMILES): O=S(=O)(NC1CCCc2c1[nH]c1ccc(Br)cc21)c1ccccc1 (stereo not drawn) [Compound 46, N-(6-Bromo-2,3,4,9-tetrahydro-1H-carbazol-1-yl)-benzenesulfonamide]

EC50 [1]: > 1000 nM
Structure (SMILES): Brc1ccc2[nH]c3c(c2c1)CCCC3 [Compound 83, 6-Bromo-2,3,4,9-tetrahydro-1H-carbazole]

EC50 [3]: > 1000 nM
EC50 [4]: > 10000 nM
Structure (SMILES): Cc1ccc2[nH]c3c(c2c1)CCCC3NCCCO (stereo not drawn) [Compound 177, 3-(6-Methyl-2,3,4,9-tetrahydro-1H-carbazol-1-ylamino)-propan-1-ol]

EC50 [1]: < 10 nM
Structure (SMILES): Brc1ccc2[nH]c3c(c2c1)CCCC3N1Cc2ccccc2C1 (stereo not drawn) [Compound 7, 6-Bromo-1-(1,3-dihydro-isoindol-2-yl)-2,3,4,9-tetrahydro-1H-carbazole]

EC50 [2]: 10 to 40 nM
Structure (SMILES): OC(COc1ccc(C2CCCc3c2[nH]c2ccc(Cl)cc32)cc1)CN1CCOCC1 (stereo not drawn) [Compound 215]

EC50 [1]: > 1000 nM
Structure (SMILES): c1ccn(C2CCCc3c2[nH]c2ccc(N4CCCC4)cc32)c1 (stereo not drawn) [Compound 106, 6-Pyrrolidin-1-yl-1-pyrrol-1-yl-2,3,4,9-tetrahydro-1H-carbazole]

EC50 [3]: > 1000 nM
EC50 [4]: > 10000 nM
Structure (SMILES): COc1ccc(NC(=S)N2CCn3c4c(c5cc(C)ccc53)CCCC42)cc1 (stereo not drawn) [Compound 172, 8-Methyl-1,2,3a,4,5,6-hexahydro-pyrazino[3,2,1-jk]carbazole-3-carbothioic acid (4-methoxy-phenyl)-amide]

EC50 [1]: > 1000 nM
Structure (SMILES): Brc1cccc2c3c([nH]c12)C(n1cccc1)CCC3 (stereo not drawn) [Compound 118, 8-Bromo-1-pyrrol-1-yl-2,3,4,9-tetrahydro-1H-carbazole]

EC50 [2]: < 10 nM
Structure (SMILES): Brc1ccc2[nH]c3c(c2c1)CCCC3c1ccc(OCCCn2ccnn2)cc1 (stereo not drawn) [Compound 209]

EC50 [1]: > 1000 nM
Structure (SMILES): Cn1c2c(c3cc(Br)ccc31)CCCC2n1cccc1 (stereo not drawn) [Compound 117, 6-Bromo-9-methyl-1-pyrrol-1-yl-2,3,4,9-tetrahydro-1H-carbazole]

EC50 [1]: 200 to 1000 nM
Structure (SMILES): CN(C(=O)c1ccccc1)C1CCCc2c1[nH]c1ccc(Br)cc21 (stereo not drawn) [Compound 69, N-(6-Bromo-2,3,4,9-tetrahydro-1H-carbazol-1-yl)-N-methyl-benzamide]

EC50 [1]: < 10 nM
Structure (SMILES): FC(F)(F)c1ccc(NC2CCCc3c2[nH]c2ccc(Br)cc32)cc1 (stereo not drawn) [Compound 6, (6-Bromo-2,3,4,9-tetrahydro-1H-carbazol-1-yl)-(4-trifluoromethyl-phenyl)-amine]

EC50 [3]: > 1000 nM
EC50 [4]: > 10000 nM
Structure (SMILES): CC(=O)N1CCn2c3c(c4cc(C)ccc42)CCCC31 (stereo not drawn) [Compound 175, 1-(8-Methyl-1,2,3a,4,5,6-hexahydro-pyrazino[3,2,1-jk]carbazol-3-yl)-ethanone]
